The values that follow come from BindingDB's records for doi:10.1021/jm950568w (Universita Di Roma, 1996).

The structures appear in SMILES notation.

Assay [1] has as its target T1, Gag-Pol polyprotein [613-1167,R896S,E946D,S1117V]/[618-1043,R896S,E946D] (Human immunodeficiency virus 2, UniProt P04584, E946D/R896S/S1117V).
T1 construct: 613-1167; 618-1043
The assay can be described thus: HIV RT Assay. The conditions noted are these: pH 7.8; 37 °C.

The target in assay [2] is T2, Gag-Pol polyprotein [588-1027]/[588-1147] (Human immunodeficiency virus 1, UniProt P04585).
T2 construct: 588-1027; 588-1147
Kind of assay: HIV RT Assay. The conditions noted are these: pH 7.8; 37 °C.

T1 sequence (P04584 613-1167, looked up, stated change not applied): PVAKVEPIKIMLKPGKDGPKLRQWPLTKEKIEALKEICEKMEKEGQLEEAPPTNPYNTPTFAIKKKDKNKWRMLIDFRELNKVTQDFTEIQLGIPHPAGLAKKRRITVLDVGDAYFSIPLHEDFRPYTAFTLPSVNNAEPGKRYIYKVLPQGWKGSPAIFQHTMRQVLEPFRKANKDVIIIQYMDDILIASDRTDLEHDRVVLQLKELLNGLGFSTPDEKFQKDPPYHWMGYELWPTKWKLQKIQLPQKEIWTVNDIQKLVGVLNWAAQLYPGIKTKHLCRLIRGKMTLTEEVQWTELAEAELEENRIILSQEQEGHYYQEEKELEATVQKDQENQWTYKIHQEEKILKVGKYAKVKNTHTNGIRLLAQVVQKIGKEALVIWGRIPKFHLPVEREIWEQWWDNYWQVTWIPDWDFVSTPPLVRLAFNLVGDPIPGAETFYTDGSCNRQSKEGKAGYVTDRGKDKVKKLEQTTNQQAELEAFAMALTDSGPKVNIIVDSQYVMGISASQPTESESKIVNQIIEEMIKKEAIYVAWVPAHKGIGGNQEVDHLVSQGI
T1 sequence (P04584 618-1043, looked up, stated change not applied): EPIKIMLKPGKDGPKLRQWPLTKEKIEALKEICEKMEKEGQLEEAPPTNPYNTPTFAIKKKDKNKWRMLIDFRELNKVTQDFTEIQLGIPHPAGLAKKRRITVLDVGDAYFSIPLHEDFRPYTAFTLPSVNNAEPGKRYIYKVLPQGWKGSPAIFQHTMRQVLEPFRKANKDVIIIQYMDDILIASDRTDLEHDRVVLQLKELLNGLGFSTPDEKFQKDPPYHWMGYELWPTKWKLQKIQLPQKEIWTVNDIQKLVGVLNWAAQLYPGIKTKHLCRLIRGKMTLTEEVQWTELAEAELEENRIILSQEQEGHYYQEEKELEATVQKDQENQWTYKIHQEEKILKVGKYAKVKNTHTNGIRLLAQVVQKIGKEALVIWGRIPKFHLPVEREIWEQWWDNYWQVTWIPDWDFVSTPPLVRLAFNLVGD

In the case of `Cc1ccnc2c1NC(=O)c1cccnc1N2C1CC1` [BI-RG-587], in assay [1], the IC50 is over 20 µM.
For `CCOC(=O)c1cccn1S(=O)(=O)c1cc(Cl)ccc1NC=O` [Ethyl 1-[(5-Chloro-2-formamidophenyl)sulfonyl]-1Hpyrrole-2-carboxylate], in assay [2], the IC50 was over 20 µM.
Still for that read-out and setting: to `CCOC(=O)c1cccn1S(=O)(=O)c1cc(Cl)ccc1NC(=O)CC` [Ethyl 1-[(5-Chloro-2-propionamidophenyl)sulfonyl]-1H-pyrrole-2-carboxylate] belongs over 20 µM.
For `CCOC(=O)c1cccn1S(=O)(=O)c1cc(Cl)ccc1N` [ethyl 1-[(2-amino-5-chlorobenzene)sulfonyl]-1H-pyrrole-2-carboxylate], the IC50 in assay [1] is over 20 µM.
`CCOC(=O)c1cccn1S(=O)(=O)c1cc(Cl)ccc1NC(C)=O` [ethyl 1-[(5-chloro-2-acetamidobenzene)sulfonyl]-1H-pyrrole-2-carboxylate] gave an IC50 in assay [2] of over 20 µM.
In the case of `CCOC(=O)CC(=O)Nc1ccc(Cl)cc1S(=O)(=O)n1cccc1C(=O)OCC` [ethyl 1-{[5-chloro-2-(ethyl 2-formamidoacetate)benzene]sulfonyl}-1H-pyrrole-2-carboxylate], the IC50 in assay [2] is over 20 µM.
`COC(=O)c1cccn1S(=O)(=O)c1cc(Cl)ccc1N` [methyl 1-[(2-amino-5-chlorobenzene)sulfonyl]-1H-pyrrole-2-carboxylate]: the IC50 in assay [1] is over 20 µM.
